# Key:
# [1] = tested on: morningglory; assay: Test C pre-/postemergence herbicide test; format: in vivo, Ipomoea coccinea; design: key to Plant response rating, Morningglory: 0 = no effect, 100 = complete control
# Procedure, shortened: (§1)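 Pre/post spray; non-phytotoxic solvent + surfactant. Post-timing 1–4 leaves, 2–18 cm. Read-out: visual % control vs untreated, day 12–14, greenhouse.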
# [2] = tested on: goosegrass; assay: Test C pre-/postemergence herbicide test; format: in vivo, Eleusine indica
# Procedure, shortened: as §1
# [3] = tested on: Surinam grass; assay: Test C pre-/postemergence herbicide test; format: in vivo, Urochloa decumbens
# Procedure, shortened: as §1
# [4] = tested on: corn; assay: Test C pre-/postemergence herbicide test; format: in vivo, Zea mays; conditions: for Plant response rating, Corn: visual, 12 to 14 days
# Procedure, shortened: as §1
# [5] = tested on: velvetleaf; assay: Test C pre-/postemergence herbicide test; format: in vivo, Abutilon theophrasti
# Procedure, shortened: as §1
# [6] = tested on: barnyardgrass; assay: Test C flooded paddy test; format: in vivo, Echinochloa crus-galli
# Procedure, shortened: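 Ratings (0 = no effect, 100 = complete control) come from visual comparison with untreated plants after 12 to 14 days in the greenhouse. Treatment was postemergence at the 1- to 4-leaf stage (2–18 cm), or at the 2-leaf stage for the flooded paddy barnyardgrass.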
# [7] = tested on: large crabgrass; assay: Test A pre-/postemergence herbicide test; format: in vivo, Digitaria sanguinalis
# Procedure, shortened: (§2)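 Greenhouse injury scoring (0–100, complete control = 100) at approximately ten days follows simultaneous pre- and postemergence application. Soil received a directed spray after seeding; seedlings of 2–10 cm at the one- to two-leaf stage were sprayed to runoff.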
# [8] = tested on: morningglory; assay: Test A pre-/postemergence herbicide test; format: in vivo, Ipomoea spp.
# Procedure, shortened: as §2
# [9] = tested on: common ragweed; assay: Test C pre-/postemergence herbicide test; format: in vivo, Ambrosia elatior; design: key to Plant response rating, Ragweed: 0 = no effect, 100 = complete control
# Procedure, shortened: as §1
# [10] = tested on: giant foxtail; assay: Test A pre-/postemergence herbicide test; format: in vivo, Setaria faberi
# Procedure, shortened: as §2
# [11] = tested on: bermudagrass; assay: Test C pre-/postemergence herbicide test; format: in vivo, Cynodon dactylon; conditions: for Plant response rating, Bermudagrass: visual, 12 to 14 days
# Procedure, shortened: as §1
# [12] = tested on: johnsongrass; assay: Test C pre-/postemergence herbicide test; format: in vivo, Sorghum halepense
# Procedure, shortened: as §1
# [13] = tested on: ducksalad; assay: Test C flooded paddy test; format: in vivo, Heteranthera limosa
# [14] = 125 g ai/ha, scale 0 (no effect) to 100 (complete control), visual, 12 to 14 days, preemergence
# [15] = Preemergence, 500 g ai/ha, scale 0 to 100, 0 no effect, 100 complete control
# [16] = 125 g ai/ha, scale 0 (no effect) to 100 (complete control), preemergence
# [17] = 250 g ai/ha, scale 0 to 100 (0 no effect, 100 complete control), preemergence
# [18] = 62 g ai/ha, scale 0 to 100 (0 no effect, 100 complete control)
# [19] = 125 g ai/ha, scale of 0 to 100, 0 is no effect, 100 is complete control
# [20] = 250 g ai/ha, scale of 0 to 100, 0 is no effect, 100 is complete control
# [21] = 500 g ai/ha, visual rating after 12 to 14 days, scale 0 to 100 (0 no effect, 100 complete control)
# [22] = Postemergence, 500 g ai/ha, 0 to 100 scale, 0 no effect, 100 complete control
# [23] = Postemergence, 2000 g ai/ha, 0 to 100 scale, 0 no effect, 100 complete control
# [24] = Preemergence, 500 g ai/ha, visual rating, 0 to 100 scale (0 no effect, 100 complete control)
# [25] = Preemergence, 2000 g ai/ha, visual rating, 0 to 100 scale (0 no effect, 100 complete control)
compound,measurement,setting,value
CC(=NO)c1cccc(NC(=O)c2cc(C(C)(C)C)nn2C)c1 [Compound 102],"Plant response rating (0 = no effect, 100 = complete control), Morningglory","[1]; 62 g ai/ha, preemergence",30
same,"Plant response rating, Morningglory",[1]; [14],70
same,Morningglory plant response rating,[1]; [15],80
same,"Plant response rating (0 = no effect, 100 = complete control), Goosegrass","[2]; 62 g ai/ha, preemergence",90
same,"Plant response rating, Goosegrass",[2]; [14],100
same,Goosegrass plant response rating,[2]; [15],100
same,"Plant response rating (0 = no effect, 100 = complete control), Surinam Grass","[3]; 62 g ai/ha, preemergence",0
same,Surinam Grass plant response rating,[3]; [15],50
same,"Plant response rating (0 = no effect, 100 = complete control), Corn","[4]; 62 g ai/ha, preemergence",0
same,"Plant response rating, Corn",[4]; [16],0
same,"Plant response rating, Corn",[4]; [17],10
same,Corn plant response rating,[4]; [15],30
same,"Plant response rating, Velvetleaf",[5]; [14],20
same,Velvetleaf plant response rating,[5]; [15],60
same,Barnyardgrass plant response rating,[6]; [18],10
same,Barnyardgrass plant response rating,[6]; [19],50
same,Barnyardgrass plant response rating,[6]; [20],50
same,"Plant response rating, Barnyardgrass",[6]; [21],70
same,"Crabgrass, Large plant response rating",[7]; [22],60
same,"Plant response rating, Crabgrass, Large",[7]; [23],80
same,"Crabgrass, Large plant response rating",[7]; [24],95
same,"Crabgrass, Large plant response rating",[7]; [25],100
same,Morningglory plant response rating,[8]; [22],35
same,"Plant response rating, Morningglory",[8]; [23],55
same,Morningglory plant response rating,[8]; [24],65
same,Morningglory plant response rating,[8]; [25],90
same,"Plant response rating (0 = no effect, 100 = complete control), Ragweed","[9]; 62 g ai/ha, preemergence",10
same,"Plant response rating, Ragweed",[9]; [14],20
same,Ragweed plant response rating,[9]; [15],100
same,"Foxtail, Giant plant response rating",[10]; [22],45
same,"Plant response rating, Foxtail, Giant",[10]; [23],65
same,"Foxtail, Giant plant response rating",[10]; [24],60
same,"Foxtail, Giant plant response rating",[10]; [25],85
same,"Plant response rating (0 = no effect, 100 = complete control), Bermudagrass","[11]; 62 g ai/ha, preemergence",100
same,"Plant response rating, Bermudagrass",[11]; [16],100
same,"Plant response rating, Bermudagrass",[11]; [17],100
same,Bermudagrass plant response rating,[11]; [15],100
same,"Plant response rating (0 = no effect, 100 = complete control), Johnsongrass","[12]; 62 g ai/ha, preemergence",50
same,"Plant response rating, Johnsongrass",[12]; [14],80
same,Johnsongrass plant response rating,[12]; [15],100
same,Ducksalad plant response rating,[13]; [18],20
same,Ducksalad plant response rating,[13]; [19],80
same,Ducksalad plant response rating,[13]; [20],90
same,"Plant response rating, Ducksalad",[13]; [21],90

# From US20060069132A1, “Azolecarboxamide herbicides” (priority 2004, published 2006)
